Data on one molecule can be found in US8741854B2, “Compositions and methods for feeding poultry” (Bioenergy, Inc., priority 2009, dated 2014).

This test concerns male chicks of a commercial breed, "Cobb 500". The test can be described thus: D-ribose supplementation of broiler chicks raised on a challenged rapid growth regimen. It is filed as in vivo, chicken (broiler chicks). The conditions noted are these: D-ribose in drinking water, about 200 mg/kg body weight/day.

Under “days 0 to 43, challenged environment, approximately 5200 feet elevation, control 27.6%”, `O=C[C@H](O)[C@H](O)[C@H](O)CO` [D-ribose] registered an observed cardiomyopathic incidences of 15.1%. For the same molecule, the “average weight and feed conversion versus control” value (birds weighed days 35 and 43, FIG. 1) is “slightly better in the control group, but the differences were not statistically significant”.
